Measured values from patent publication US20260274807A1 (University of Health Sciences and Pharmacy in St. Louis, priority 2023, published 2026).

Experiments:
ERRα = molecular target: T1, ERRα (Homo sapiens, UniProt P11474); experiment: ERRE luciferase reporter assay in HEK293 cells transfected with pcDNA3.1 ERRα; assay type: cell-based; design: key to EC50 (ERRα) μM: * <1 μM; ** 1-5 μM; *** >5 μM; i.a. (inactive); conditions: HEK293 cells transfected with ERRE reporter construct and pcDNA3.1 ERRα; compound for 24 hours; luciferase activity
T1 construct: expressed in transfected cells; host or cells: HEK293
T1 sequence (P11474 1-423): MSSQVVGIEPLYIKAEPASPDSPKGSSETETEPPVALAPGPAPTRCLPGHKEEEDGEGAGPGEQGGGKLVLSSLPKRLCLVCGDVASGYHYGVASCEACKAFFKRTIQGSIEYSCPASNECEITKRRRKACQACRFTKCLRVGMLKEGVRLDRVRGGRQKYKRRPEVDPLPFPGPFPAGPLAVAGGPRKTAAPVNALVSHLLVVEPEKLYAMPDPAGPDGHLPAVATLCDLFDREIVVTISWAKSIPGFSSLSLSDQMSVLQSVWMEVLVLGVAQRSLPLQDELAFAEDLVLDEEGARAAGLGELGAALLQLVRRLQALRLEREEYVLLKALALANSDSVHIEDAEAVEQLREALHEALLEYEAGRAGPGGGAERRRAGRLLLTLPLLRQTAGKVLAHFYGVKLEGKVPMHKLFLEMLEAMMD
Description: (§1) HEK293 cells were maintained in Dulbecco's modified Eagles medium (DMEM) supplemented with 10% fetal bovine serum at 37° C. under […]. […] Cells were transfected with ERRE reporter construct and pcDNA3.1 ERRα or ERRγ. Twenty-four-hours post-transfection, the cells were treated with vehicle or compound (various concentrations) for 24 hours (4 wells per dose). Luciferase activity was measured using the One-Glo Tox luciferase reporter assay system (Promega) and EC50s were calculated using GraphPad Prism software.

ERRγ = molecular target: T2, ERRγ (Homo sapiens, UniProt P62508); experiment: ERRE luciferase reporter assay in HEK293 cells transfected with pcDNA3.1 ERRγ; assay type: cell-based; design: key to EC50 (ERRγ) μM: * <1 μM; ** 1-5 μM; *** >5 μM; i.a. (inactive); conditions: HEK293 cells transfected with ERRE reporter construct and pcDNA3.1 ERRγ; compound for 24 hours; luciferase activity
T2 construct: expressed in transfected cells; host or cells: HEK293
T2 sequence (P62508 1-458): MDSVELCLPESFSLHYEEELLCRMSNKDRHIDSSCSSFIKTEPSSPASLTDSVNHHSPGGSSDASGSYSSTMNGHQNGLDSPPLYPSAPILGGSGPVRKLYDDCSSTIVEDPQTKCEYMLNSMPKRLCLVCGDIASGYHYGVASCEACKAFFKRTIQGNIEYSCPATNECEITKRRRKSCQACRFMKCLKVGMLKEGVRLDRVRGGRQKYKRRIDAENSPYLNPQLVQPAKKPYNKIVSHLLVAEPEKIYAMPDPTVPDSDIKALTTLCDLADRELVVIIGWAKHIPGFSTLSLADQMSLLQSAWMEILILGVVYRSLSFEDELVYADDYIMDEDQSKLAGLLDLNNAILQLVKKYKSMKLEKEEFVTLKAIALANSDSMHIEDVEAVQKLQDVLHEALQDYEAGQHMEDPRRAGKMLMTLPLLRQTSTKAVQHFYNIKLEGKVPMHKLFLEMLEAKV
Description: as §1

## FC(F)(F)c1ccc(-c2nnc(-c3ccnc4ccccc34)o2)cc1 [Entry 47, 2-(quinolin-4-yl)-5-(4-(trifluoromethyl)phenyl)-1,3,4-oxadiazole]
ERRα
  EC50: > 5000 nM
ERRγ
  EC50: > 5000 nM

## FC(F)(F)c1ccc(-c2nnc(-c3ccc4ccccc4n3)o2)cc1 [Entry 48, 2-(quinolin-2-yl)-5-(4-(trifluoromethyl)phenyl)-1,3,4-oxadiazole]
ERRα
  EC50 (ERRα) μM: i.a.
ERRγ
  EC50 (ERRγ) μM: i.a.

## FC(F)(F)c1ccc(-c2nnc(-c3ccccn3)o2)cc1 [Entry 49, 2-(pyridin-2-yl)-5-(4-(trifluoromethyl)phenyl)-1,3,4-oxadiazole]
ERRα
  EC50: < 1000 nM
ERRγ
  EC50: < 1000 nM

## O=[N+]([O-])c1ccccc1-c1nnc(-c2ccc(C(F)(F)F)cc2)o1 [Entry 50, 2-(2-nitrophenyl)-5-(4-(trifluoromethyl)phenyl)-1,3,4-oxadiazole]
ERRα
  EC50: 1000 to 5000 nM
ERRγ
  EC50: 1000 to 5000 nM

## O=[N+]([O-])c1cccc(-c2nnc(-c3ccc(C(F)(F)F)cc3)o2)c1 [Entry 51, 2-(3-nitrophenyl)-5-(4-(trifluoromethyl)phenyl)-1,3,4-oxadiazole]
ERRα
  EC50 (ERRα) μM: i.a.
ERRγ
  EC50 (ERRγ) μM: i.a.

## O=[N+]([O-])c1ccc(-c2nnc(-c3ccc(C(F)(F)F)cc3)o2)cc1 [Entry 52, 2-(4-nitrophenyl)-5-(4-(trifluoromethyl)phenyl)-1,3,4-oxadiazole]
ERRα
  EC50: > 5000 nM
ERRγ
  EC50: > 5000 nM

## FC(F)(F)c1ccc(-c2nnc(-c3ccccc3Cl)o2)cc1 [Entry 53, 2-(2-chlorophenyl)-5-(4-(trifluoromethyl)phenyl)-1,3,4-oxadiazole]
ERRα
  EC50: < 1000 nM
ERRγ
  EC50: 1000 to 5000 nM

## COc1cccc(-c2nnc(-c3ccc(C(F)(F)F)cc3)o2)c1 [Entry 54, 2-(3-methoxyphenyl)-5-(4-(trifluoromethyl)phenyl)-1,3,4-oxadiazole]
ERRα
  EC50: > 5000 nM
ERRγ
  EC50: > 5000 nM

## COc1ccc(-c2nnc(-c3ccc(C(F)(F)F)cc3)o2)cc1 [Entry 55, 2-(4-methoxyphenyl)-5-(4-(trifluoromethyl)phenyl)-1,3,4-oxadiazole]
ERRα
  EC50 (ERRα) μM: i.a.
ERRγ
  EC50 (ERRγ) μM: i.a.

## FC(F)(F)c1cccc(-c2nnc(-c3ccccc3)o2)c1 [Entry 56, 2-phenyl-5-(3-(trifluoromethyl)phenyl)-1,3,4-oxadiazole]
ERRα
  EC50: < 1000 nM
ERRγ
  EC50: < 1000 nM

## FC(F)(F)c1cccc(-c2nnc(-c3ccco3)o2)c1 [Entry 57, 2-(furan-2-yl)-5-(3-(trifluoromethyl)phenyl)-1,3,4-oxadiazole]
ERRα
  EC50: < 1000 nM
ERRγ
  EC50: 1000 to 5000 nM

## FC(F)(F)c1cccc(-c2nnc(-c3cccs3)o2)c1 [Entry 58, 2-(thiophen-2-yl)-5-(3-(trifluoromethyl)phenyl)-1,3,4-oxadiazole]
ERRα
  EC50: < 1000 nM
ERRγ
  EC50: < 1000 nM

## FC(F)(F)c1cccc(-c2nnc(-c3ccnc4ccccc34)o2)c1 [Entry 59, 2-(quinolin-4-yl)-5-(3-(trifluoromethyl)phenyl)-1,3,4-oxadiazole]
ERRα
  EC50: < 1000 nM
ERRγ
  EC50: 1000 to 5000 nM

## FC(F)(F)c1cccc(-c2nnc(-c3ccc4ccccc4n3)o2)c1 [Entry 60, 2-(quinolin-2-yl)-5-(3-(trifluoromethyl)phenyl)-1,3,4-oxadiazole]
ERRα
  EC50: 1000 to 5000 nM
ERRγ
  EC50: 1000 to 5000 nM

## FC(F)(F)c1cccc(-c2nnc(-c3ccccn3)o2)c1 [Entry 61, 2-(pyridin-2-yl)-5-(3-(trifluoromethyl)phenyl)-1,3,4-oxadiazole]
ERRα
  EC50: < 1000 nM
ERRγ
  EC50: < 1000 nM

## O=[N+]([O-])c1ccccc1-c1nnc(-c2cccc(C(F)(F)F)c2)o1 [Entry 62, 2-(2-nitrophenyl)-5-(3-(trifluoromethyl)phenyl)-1,3,4-oxadiazole]
ERRα
  EC50: 1000 to 5000 nM
ERRγ
  EC50: 1000 to 5000 nM

## O=[N+]([O-])c1cccc(-c2nnc(-c3cccc(C(F)(F)F)c3)o2)c1 [Entry 63, 2-(3-nitrophenyl)-5-(3-(trifluoromethyl)phenyl)-1,3,4-oxadiazole]
ERRα
  EC50: 1000 to 5000 nM
ERRγ
  EC50: > 5000 nM
